Paper PMC2690574 (Journal of medicinal chemistry, 2008)
Where two headings read alike, the source gives them in different places.

Columns and labels:
[1] = test system: anoxic HT29 cell suspensions; experiment: Rate constant for metabolic consumption kmet in anoxic single cell suspensions; format: in vitro ADME; conditions: scaled to the cell density in MCLs
[2] = One electron reduction potential E; format: physicochemical; conditions: anaerobic aqueous solution, pH 7.0, pulse radiolysis
anoxic HT29 tumor tissue = experiment: Penetration half distance X½ calculated from D and kmet; conditions: for EVT based on X½ (in words): compared with TPZ
[3] = side chain, calculated using ACD pKa; cited from earlier work
[4] = calculated using ACD logD, pH 7.4; cited from earlier work
[5] = culture medium; cited from earlier work
[6] = cited from earlier work; for E(1): one electron reduction potential
HT29 cells [7] = conditions: read-out: HT29 IC50 hypox; HT29, anoxic; cited from earlier work
SiHa cells = conditions: cited from earlier work
HT29 MCLs = conditions: calculated; cited from earlier work
[8] = test system: anoxic HT29 cell suspensions; conditions: scaled to MCL cell density; cited from earlier work
HT29 cells [9] = experiment: IC50 assay, 4 h drug exposure under aerobic and anoxic conditions, HT29; format: cell-based; conditions: criterion HCR > 20 in the PK/PD model

Row | Compound | kmet (first order rate constant for metabolism) [1] [min⁻¹] | E(1) [2] [mV] | other results
1 | CCN(CC)CCNc1n[n+]([O-])c2c3c(ccc2[n+]1[O-])CCC3 [TTO 10] | 0.97 | – | –
2 | CN(C)CCNc1n[n+]([O-])c2cc3c(cc2[n+]1[O-])CCCCC3 [TTO 19] | 1.52 | −488 | –
3 | CCN(CC)CCNc1n[n+]([O-])c2cc3c(cc2[n+]1[O-])OCC3 [TTO 24] | 0.26 | – | EVT based on X½ (in words) (anoxic HT29 tumor tissue): predicted to display improved EVT
4 | CN(C)CCNc1n[n+]([O-])c2cc3c(cc2[n+]1[O-])CCC3 [TTO 4] | 0.44 | −486 | –
5 | CN(C)CCNc1n[n+]([O-])c2c3c(ccc2[n+]1[O-])CCC3 [TTO 9] | 0.74 | −480 | –
6 | CCCN(CCC)CCNc1n[n+]([O-])c2cc3c(cc2[n+]1[O-])CCC3 [TTO 6] | 1.07 | – | –
7 | CCCN(CCC)CCNc1n[n+]([O-])c2c3c(ccc2[n+]1[O-])CCC3 [TTO 11] | 0.73 | – | –
8 | [O-][n+]1nc(NCCN2CCCCC2)[n+]([O-])c2ccc3c(c21)CCC3 [TTO 12] | 1.60 | – | –
9 | COc1ccc2c(c1)[n+]([O-])c(NCCN(C)C)n[n+]2[O-] [compound 2] | – | – | pKa [3]: 8.5; logP7.4 calc [4]: −0.07; Sol. [5]: 46 mM; E(1) [6]: −500 mV; lowering of E(1) by 6-OMe substituent ([6]; relative to the 3-dimethylaminoethylamine BTO): 104 mV; IC50 (HT29 cells [7]): 7.7 µM; SiHa HCR (SiHa cells; oxic IC50/hypoxic IC50): 232; IC50 (SiHa cells; read-out: SiHa IC50 hypox, anoxic): 2.9 µM; D calc (diffusion coefficient in HT29 MCLs) (HT29 MCLs): 2.9 ×10^−7 cm^2s^−1; kmet (first order rate constant for metabolism) [8]: 0.54 min⁻¹
10 | CN(C)CCNc1n[n+]([O-])c2c3c(ccc2[n+]1[O-])CCCC3 [TTO 18] | 1.78 | – | –
11 | CCNc1n[n+]([O-])c2cc3c(cc2[n+]1[O-])CN(C)CC3 [TTO 32] | – | −462 | –
12 | CN(C)CCNc1n[n+]([O-])c2cc3c(cc2[n+]1[O-])OCC3 [TTO 23] | 0.60 | −545 | –
13 | Nc1n[n+]([O-])c2cc3c(cc2[n+]1[O-])OCC3 [TTO 22] | – | – | hypoxic selectivity (in words) (HT29 cells [9]): failed to pass the criterion for hypoxic selectivity (HCR > 20)
14 | Nc1n[n+]([O-])c2cc3c(cc2[n+]1[O-])CCC3 [TTO 3] | 0.47 | – | –
15 | [O-][n+]1nc(NCCN2CCCCC2)[n+]([O-])c2cc3c(cc21)CCC3 [TTO 7] | 1.25 | – | –
16 | CN(C)CCNc1n[n+]([O-])c2c3c(ccc2[n+]1[O-])OCCC3 [TTO 29] | 0.59 | – | –
17 | Nc1n[n+]([O-])c2ccccc2[n+]1[O-] [compound 1, tirapazamine] | – | – | logP7.4 calc [4]: −0.33; Sol. [5]: 9 mM; E(1) [6]: −456 mV
18 | [O-][n+]1nc(NCCCN2CCOCC2)[n+]([O-])c2ccc3c(c21)CCC3 [TTO 13] | 0.20 | −510 | –
19 | CCN(CC)CCNc1n[n+]([O-])c2cc3c(cc2[n+]1[O-])CCC3 [TTO 5] | 1.08 | – | –

Further lines, with some results ahead:

Row | kmet (first order rate constant for metabolism) [1] [min⁻¹] | E(1) [2] [mV] | Compound | other results
20 | 0.31 | −468 | [O-][n+]1nc(CCCN2CCOCC2)[n+]([O-])c2cc3c(cc21)CCO3 [TTO 40] | –
21 | 0.47 | −452 | CCc1n[n+]([O-])c2cc3c(cc2[n+]1[O-])CC(CO)C3 (centres unmarked) [TTO 35] | –
22 | – | −344 | CCc1n[n+]([O-])c2cc3c(cc2[n+]1[O-])CN(C)CC3 [TTO 41] | –
23 | 2.20 | −390 | CCN1Cc2cc3c(cc2C1)[n+]([O-])c(N)n[n+]3[O-] [TTO 31] | –
24 | 0.20 | – | [O-][n+]1nc(NCCCN2CCOCC2)[n+]([O-])c2cc3c(cc21)OCC3 [TTO 21] | EVT based on X½ (in words) (anoxic HT29 tumor tissue): predicted to display improved EVT
25 | 0.54 | – | CCc1n[n+]([O-])c2cc3c(cc2[n+]1[O-])CC(CCO)C3 (centres unmarked) [TTO 38] | –
26 | 0.13 | – | CC1Cc2cc3c(cc2C1)[n+]([O-])c(NCCCN1CCOCC1)n[n+]3[O-] (centres unmarked) [TTO 15] | –
27 | 0.23 | – | [O-][n+]1nc(NCCCN2CCOCC2)[n+]([O-])c2cc3c(cc21)CCO3 [TTO 25] | EVT based on X½ (in words) (anoxic HT29 tumor tissue): predicted to display improved EVT
28 | 0.19 | – | [O-][n+]1nc(NCCCN2CCOCC2)[n+]([O-])c2cc3c(cc21)CCC3 [TTO 8] | –
29 | 0.69 | – | [O-][n+]1nc(NCCCN2CCOCC2)[n+]([O-])c2cc3c(cc21)CCCC3 [TTO 17] | –
30 | 0.90 | −408 | [O-][n+]1nc(CCCN2CCOCC2)[n+]([O-])c2cc3c(cc21)CC(CO)C3 (centres unmarked) [TTO 37] | –
31 | 0.24 | – | CC1Cc2cc3c(cc2C1)[n+]([O-])c(CCCO)n[n+]3[O-] (centres unmarked) [TTO 33] | –
32 | 0.54 | −431 | CCc1n[n+]([O-])c2cc3c(cc2[n+]1[O-])CC(CCN1CCOCC1)C3 (centres unmarked) [TTO 39] | X½ (penetration half distance) (anoxic HT29 tumor tissue; anoxic HT29 tumor tissue, from D and kmet): 100 μm
33 | 1.49 | – | CC1Cc2cc3c(cc2C1)[n+]([O-])c(NCCN(C)C)n[n+]3[O-] (centres unmarked) [TTO 14] | –
34 | 0.54 | – | CCc1n[n+]([O-])c2cc3c(cc2[n+]1[O-])CC(CN1CCOCC1)C3 (centres unmarked) [TTO 36] | –
